{
  "source": "patent US20250032447A1",
  "about": "“USE OF UROLITHIN IN THE REMISSION PHASE OF A PRECEDING CANCER THERAPY” (SOCIETE DES PRODUITS NESTLE S.A., priority 2022, published 2025)",
  "key": {"[1]": {"test_system": "MC38 colorectal cancer cells", "test": "MC38 tumor challenge in mice fed UroA enriched diet", "format": "in vivo, C57BL/6 mice", "from_the_text": "Cell line and in vitro culture: An MC38 colorectal cancer cell line and a B16 cell line were used. The MC38 colorectal cancer cell line (Corbett el al., Can Res, 1975) is a murine colon adenocarcinoma cell line from a C57BL/6 mouse. The cells are adherent and have a fibroblast morphology. MC38 cells will form tumors and metastases post implantation into syngeneic C57BL/6 mice or immunocompromised mice. The B16 melanoma is a murine tumor cell line used for research as a model for human skin cancers. Both MC38 and B16 cancer cell lines are commercially available.\nThe MC38 colorectal cancer cell line was maintained in RPMI 1640 media (Thermofisher) supplemented with 10% FBS (Gibco), 50 μM beta-mercaptoethanol (Thermofisher), 100 U/ml penicillin/streptomycin (Thermofisher), 1 mM Sodium Pyruvte (Thermofisher).\nB57BL/6 mice were purchased from ENVIGO and housed in the animal facility of the University of Lausanne. One week upon arrival mice were fed ad libitum with Urolithin A enriched diet. Urolithin A diet was prepared as follow: 300 mg of Urolithin A (Novalix) was dissolved in DMSO (Applichem) and mixed with 1 kg of “2016 Irradiated Global 16% Rodent diet ground” (ENVIGO) corresponding to a dose of 50 mg/kg/day. For control diet, hereafter named DMSO diet, DMSO (Applichem) was mixed with 1 kg of “2016 Irradiated Global 16% Rodent diet ground” (ENVIGO). The diets were aliquoted in small balls and let them dry under sterile conditions. Mice were fed ad libitum for 4 weeks with DMSO diet or Urolithin A diet before tumor engraftment.\nFor tumor engraftment, each mouse was injected subcutaneously with 5×10^5 MC38 cancer cells or 1×10^5 B16 cancer cells into the right flank.\nFor the MC38 and B16 experiments 5 mice received ad libitum DMSO diet, and 5 mice received ad libitum Urolithin A enriched diet for 4 weeks before tumor injection. Mice were sacrificed at humane endpoint as established by the Swiss federal regulation and approved by cantonal authorities. Examples of humane endpoint are: tumor size exceeding […], loss of weight (15% of the previous time point) and sign of distress. […] These mice were named survivor mice.\nTo test this hypothesis, mice were fed ad libitum with UroA diet (see above, Urolithin A diet) and control diet (DMSO, see above) for 4 weeks. Colorectal cancer cells MC38 were subcutaneously injected in the right flank of the mice (FIG. 1A). Tumor volumes were estimated by using the formula: tumor volume=(length×width×width)/2."}, "MC38 cells": {"test_system": "MC38 cells", "test": "MC38 tumor challenge in immunodeficient NSG mice", "format": "in vivo", "conditions": "for effect on tumor growth rate and size: NSG immunodeficient mice, vs DMSO control", "from_the_text": "To validate that the Urolithin A supplementation enhances the adaptive immune response 5×10^5 MC38 cells were subcutaneously injected in the right flank of the immunodeficient mice NSG (NOD.Cg-Prkdc^sc^i^d II2rg^tm1Wil/SzJ) previously fed with Urolithin A enriched diet for 4 weeks. Tumor volumes were estimated by using the formula: tumor volume=(length×width×width)/2. 5 mice recede the DMSO diet and 5 mice received the Urolithin A enriched diet. Both the 5 mice receiving the DMSO diet and the 5 mice receiving the Urolithin A enriched diet developed tumors."}, "[2]": {"test": "Initial tests in mice fed diet supplemented with UroA", "format": "in vivo"}, "[3]": {"test_system": "MC38 colorectal cancer cells", "test": "MC38 tumor re-challenge of survivor mice", "format": "in vivo", "from_the_text": "For re-challenge experiments, survivor mice were removed from the UroA diet and placed in conventional diet (diet provided by the animal facility of University of Lausanne) for one week. During this week one mouse developed tumor and was excluded from the experiment. The remaining 3 mice were subcutaneously injected with 5×10^5 MC38 cancer cells. At the same time, another 5 mice (named control cage) were subcutaneously injected with 5×10^5 MC38 cancer cells. This second tumor injection was done on the left flank of the mouse to discriminate between tumor arising from the first injection from tumor arising from the second, re-challenge, injection.\nThen, it was tested whether UroA mediated tumor control was exerted through adaptive immune response. It was assumed as a working hypothesis that memory T cells with antitumoral activity would have been generated in the survivor hosts, which would promptly react against a second tumor graft. To test this hypothesis, survivor mice from the UroA group were injected after 7 weeks with the same cancer cell line (MC38) in the opposite flank (FIG. 2A). To exclude any possible contribution of UroA in tumor growth, the mice survivor mice and a control cage group were kept in conventional food without UroA for one week before tumor injection."}, "B16 melanoma [4]": {"test_system": "B16 melanoma", "test": "B16 melanoma preventive effect, diet on/off", "format": "in vivo, B57BL/6 mice", "conditions": "day 17, 5×10^5 B16 cells s.c.", "from_the_text": "To test whether Urolithin A feeding would have a preventive effect by boosting the immune system inventors performed the following experiment. A less immunogenic tumor model B16 melanoma was chosen for this experiment. 10 mice received ad libitum DMSO diet (see above), and 10 mice received ad libitum Urolithin A enriched diet (see above) for 4 weeks. Then 5 mice from DMSO diet were placed in conventional diet (provided by Animal facility), this group was called DMSO on/off. The remaining 5 mice were kept in DMSO diet and named DMSO group. 5 mice from Urolithin diet were placed in conventional diet (provided by Animal facility), this group was called UroA on/off. The remaining 5 mice were kept in […]. After one week, 5×10^5 B16 cells were subcutaneously injected in the right flank of B57BL/6 mice. Tumor engraftment, diet treatment and re-challenge experiments were as described initially in Example 1."}, "B16 melanoma [5]": {"test_system": "B16 melanoma", "test": "B16 melanoma tumor challenge in mice fed UroA enriched diet", "format": "in vivo, B57BL/6 mice", "conditions": "5 mice; Urolithin A enriched diet ad libitum 4 weeks before B16 injection", "procedure": "The B16 cell line were maintained in DMEM+GlutaMAX (Thermofisher) supplemented with 10% FBS (Gibco), and 100 U/ml penicillin/streptomycin (Thermofisher). B57BL/6 mice were purchased from ENVIGO and housed in the animal facility of the University of Lausanne. One week upon arrival mice were fed ad libitum with Urolithin A enriched diet. Urolithin A diet was prepared as follow: 300 mg of Urolithin A (Novalix) was dissolved in DMSO (Applichem) and mixed with 1 kg of “2016 Irradiated Global 16% Rodent diet ground” (ENVIGO) corresponding to a dose of 50 mg/kg/day. For control diet, hereafter named DMSO diet, DMSO (Applichem) was mixed with 1 kg of “2016 Irradiated Global 16% Rodent diet ground” (ENVIGO). The diets were aliquoted in small balls and let them dry under sterile conditions. Mice were fed ad libitum for 4 weeks with DMSO diet or Urolithin A diet before tumor engraftment. For tumor engraftment, each mouse was injected subcutaneously with 5×10^5 MC38 cancer cells or 1×10^5 B16 cancer cells into the right flank. For the MC38 and B16 experiments 5 mice received ad libitum DMSO diet, and 5 mice received ad libitum Urolithin A enriched diet for 4 weeks before tumor injection. Mice were sacrificed at humane endpoint as established by the Swiss federal regulation and approved by cantonal authorities. […]"}},
  "note": "“Also recorded” adds a separate entry of the source.",
  "data": [
    {"smiles": "O=c1oc2cc(O)ccc2c2ccc(O)cc12", "note": "[Urolithin A, 3,8-dihydroxyurolithin]", "values": [
      {"measurement": "average tumor size", "setting": "[1]; Exp1, 5 mice, Urolithin A enriched diet ad libitum 4 weeks (50 mg/kg/day) before s.c. injection of 5×10^5 MC38 cells", "value": 50, "unit": "mm^3"},
      {"measurement": "tumor engraftment and growth", "setting": "[1]; Exp1 and Exp2, UroA enriched diet ad libitum vs DMSO diet", "value": "significantly reduced"},
      {"measurement": "mice that developed tumors bigger than 100 mm^3", "setting": "[1]; Exp2, out of 3 mice on Urolithin A enriched diet", "value": "one"},
      {"measurement": "mice that did not develop any tumor", "setting": "[1]; MC38, mice fed Urolithin A diet", "value": "4 out of 5"},
      {"measurement": "overall survival", "setting": "[1]; UroA diet compared to DMSO diet, MC38 model", "value": "improved overall survival"},
      {"measurement": "effect on tumor growth rate and size", "setting": "MC38 cells", "value": "no change in tumors growth rate and volume"},
      {"measurement": "effect on tumor growth rate and size", "setting": "MC38 cells; listed as UroA", "value": "no effect on tumor size"},
      {"measurement": "tumor size at last timepoint", "setting": "MC38 cells; day 18, NSG mice, Urolithin A enriched diet 4 weeks, 5×10^5 MC38 cells s.c.", "value": 1000, "unit": "mm³"},
      {"measurement": "overall quality of HSCs", "setting": "[2]", "value": "increased"},
      {"measurement": "splenocytes count", "setting": "[2]", "value": "increased"},
      {"measurement": "average tumor size upon re-challenge", "setting": "[3]; survivor mice re-injected with MC38 in opposite flank after 7 weeks, conventional food without UroA for one week before injection", "value": 100, "unit": "mm^3"},
      {"measurement": "survival upon re-challenge", "setting": "[3]; survivor mice vs freshly challenged control cage group, listed as UroA", "value": "better tumor control capacity and survival; also recorded: improved overall survival"},
      {"measurement": "average tumor size", "setting": "B16 melanoma [4]; UroA group (kept on diet)", "value": 200, "unit": "mm^3"},
      {"measurement": "average tumor size", "setting": "B16 melanoma [4]; UroA on/off group (4 weeks diet, then conventional diet one week before injection)", "value": 200, "unit": "mm^3"},
      {"measurement": "average tumor size", "setting": "B16 melanoma [5]", "value": 70, "unit": "mm^3"}
    ]}
  ]
}
